Consider 18 compounds from patent publication US20130196984A1, “3-AMINO-5-PHENYL-56-DIHYDRO-2H-[1,4]OXAZINES” (Siena Biotech S.p.A., priority 2009, published 2013).

The target of assay [1] is T1, BACE2 (Homo sapiens, UniProt Q9Y5Z0).
T1 construct: BACE2 enzyme ectodomain (derived from plasmid “pET17b-T7-hu proBACE2”); T7 (N); made in house
T1 sequence (Q9Y5Z0 63-473 limits assumed): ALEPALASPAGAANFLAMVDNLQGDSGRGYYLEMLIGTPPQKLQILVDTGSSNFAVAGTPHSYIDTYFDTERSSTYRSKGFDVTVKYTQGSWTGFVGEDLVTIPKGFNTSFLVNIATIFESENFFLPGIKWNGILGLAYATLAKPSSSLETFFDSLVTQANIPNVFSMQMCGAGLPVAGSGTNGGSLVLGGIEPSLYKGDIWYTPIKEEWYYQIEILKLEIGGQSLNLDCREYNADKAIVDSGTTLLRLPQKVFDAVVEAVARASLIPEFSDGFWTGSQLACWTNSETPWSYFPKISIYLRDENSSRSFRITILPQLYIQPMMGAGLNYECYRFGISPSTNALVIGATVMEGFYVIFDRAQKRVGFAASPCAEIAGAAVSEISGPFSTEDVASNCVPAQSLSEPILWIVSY
Put plainly: Assay A: binding studies using SPR based methods, immobilised BACE2. To be noted: CM5 chip, immobilised BACE2 enzyme ectodomain, acetate buffer pH 4.6, 4% DMSO. On the technique in general: SPR reads the build-up and loss of mass on a sensor chip optically.

For assay [2], the target named is T2, BACE2 (Rattus norvegicus, UniProt Q6IE75).
T2 construct: endogenous cellular BACE2 in the Ins1e rat cell line; endogenous in cells; host or cells: INS-TMEM27 (INS1e-derived rat cell line with doxycycline-inducible full-length hTMEM27)
T2 sequence (Q6IE75 63-514): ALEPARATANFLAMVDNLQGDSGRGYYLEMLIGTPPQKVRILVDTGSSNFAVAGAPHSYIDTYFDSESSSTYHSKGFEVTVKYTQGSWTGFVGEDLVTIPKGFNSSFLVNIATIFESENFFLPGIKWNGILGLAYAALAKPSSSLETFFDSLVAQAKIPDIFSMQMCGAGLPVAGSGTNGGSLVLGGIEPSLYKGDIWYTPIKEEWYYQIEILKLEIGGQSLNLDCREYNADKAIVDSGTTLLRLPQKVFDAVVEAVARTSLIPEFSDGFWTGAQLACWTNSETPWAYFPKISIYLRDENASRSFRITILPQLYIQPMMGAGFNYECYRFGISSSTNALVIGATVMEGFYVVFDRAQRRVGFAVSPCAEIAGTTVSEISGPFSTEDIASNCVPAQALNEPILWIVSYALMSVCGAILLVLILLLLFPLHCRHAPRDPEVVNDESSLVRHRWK
Put plainly: Assay for BACE inhibition by measuring cellular TMEM27 cleavage.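 Also: inhibitor added 2 h before doxycycline-induced hTMEM27 expression, supernatant collected after further 46 h, endogenous BACE2 activity read as reduced TMEM27 shedding.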 It counts as cell-based. To be noted: INS-TMEM27 (INS1e-derived) cells, ELISA of shed human TMEM27 in supernatant.

The target of assay [3] is T3, BACE1 (Homo sapiens, UniProt P56817). Put plainly: Cellular Abeta-lowering assay. The class given is cell-based. On the set-up: endogenous in cells; host or cells: HEK293 stably transfected with human APP695 wt. The conditions noted are these: HEK293 cells stably transfected with human APP wt (APP695), Aβ40 ELISA of supernatant after 18-20 hrs. On the technique in general: ELISA stands for enzyme-linked immunosorbent assay.
T3 sequence (P56817 46-501): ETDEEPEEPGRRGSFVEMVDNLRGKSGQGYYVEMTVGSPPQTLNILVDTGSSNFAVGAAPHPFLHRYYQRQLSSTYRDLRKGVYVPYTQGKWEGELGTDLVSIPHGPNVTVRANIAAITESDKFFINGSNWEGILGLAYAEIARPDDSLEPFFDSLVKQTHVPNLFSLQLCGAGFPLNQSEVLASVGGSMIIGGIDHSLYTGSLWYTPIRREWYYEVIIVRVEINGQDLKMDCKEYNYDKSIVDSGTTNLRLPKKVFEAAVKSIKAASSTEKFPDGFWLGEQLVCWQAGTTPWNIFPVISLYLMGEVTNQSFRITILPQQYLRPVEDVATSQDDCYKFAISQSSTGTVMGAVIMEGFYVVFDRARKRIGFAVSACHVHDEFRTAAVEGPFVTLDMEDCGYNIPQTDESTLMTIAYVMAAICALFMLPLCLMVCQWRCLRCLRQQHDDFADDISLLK

The target of assay [4] is T3, BACE1. The experiment in a line: Assay A: binding studies using SPR based methods, immobilised BACE1.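 Also: KD from a 1:1 kinetic fit (koff/kon) of real-time association and dissociation curves, or for fast binders from end-of-association equilibrium responses plotted against log concentration.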 On the set-up: 6his-tagged full length BACE 1 expressed in SF9 cells; 6His; made in house; host or cells: SF9 insect cells. To be noted: CM5 chip, immobilised 6his-tagged full length BACE 1, acetate buffer pH 4.6, 4% DMSO.

The structures appear in SMILES notation. Where a name gives a salt, the structure may show the parent alone.

As for `CC(F)(F)C(=O)Nc1ccc(F)c([C@]2(C)COCC(N)=N2)c1` [Example 90, N-[3-((R)-5-amino-3-methyl-3,6-dihydro-2H-[1,4]oxazin-3-yl)-4-fluoro-phenyl]-2,2-difluoro-propionamide formate], the dissociation constant Kd at BACE2 [1] is 150 nM; at BACE1 [4] it was 148 nM. In addition, the IC50 amounted to 1220 nM on BACE2 [2] and 220 nM against BACE1 [3].
On to `C[C@@]1(c2cc(NC(=O)c3ncccc3F)ccc2F)COCC(N)=N1` [Example 37, 3-fluoro-pyridine-2-carboxylic acid [3-((R)-5-amino-3-methyl-3,6-dihydro-2H-[1,4]oxazin-3-yl)-4-fluoro-phenyl]-amide], for which the dissociation constant Kd came out at 20 nM on BACE2 [1] and 283 nM on BACE1 [4]. The figures for the half-inhibitory concentration (IC50) on BACE2 [2] and on BACE1 [3] were 17 nM and 240 nM, respectively.
In the case of `Cn1cc(Cl)c(C(=O)Nc2ccc(F)c([C@]3(C)COCC(N)=N3)c2)n1` [Example 43, 4-chloro-1-methyl-1H-pyrazole-3-carboxylic acid [3-((R)-5-amino-3-methyl-3,6-dihydro-2H-[1,4]oxazin-3-yl)-4-fluoro-phenyl]-amide], the Kd on BACE2 [1] came out at 5 nM; on BACE1 [4], 85 nM. In addition, the IC50 at BACE2 [2] turned out to be 13 nM; on BACE1 [3], 79 nM.
In the same order, the values of `CCC(=O)Nc1ccc(F)c([C@]2(C)COCC(N)=N2)c1` [Example 94, N-[3-((R)-5-amino-3-methyl-3,6-dihydro-2H-[1,4]oxazin-3-yl)-4-fluoro-phenyl]-propionamide formate] are 1950 nM, 2700 nM, 1080 nM and 1400 nM.
With `C[C@@]1(c2cc(NC(=O)c3ncc(F)cc3F)ccc2F)COCC(N)=N1` [Example 41, 3,5-difluoro-pyridine-2-carboxylic acid [3-((R)-5-amino-3-methyl-3,6-dihydro-2H-[1,4]oxazin-3-yl)-4-fluoro-phenyl]-amide], the Kd on BACE2 [1] was 6 nM; on BACE1 [4] it was 54 nM. For the same compound, the half-inhibitory concentration (IC50) was 4 nM on BACE2 [2] and 26 nM against BACE1 [3].
Take `Cc1cc(C(=O)Nc2cccc(C3(C)COCC(N)=N3)c2)c(C)o1` (racemic) [Example 13, (RS)-2,5-dimethylfuran-3-carboxylic acid [3-(5-amino-3-methyl-3,6-dihydro-2H-[1,4]oxazin-3-yl)-phenyl]-amide]: the dissociation constant Kd at BACE2 [1] stood at 33 nM; at BACE1 [4], 445 nM. Also, the IC50 at BACE2 [2] was 51 nM; on BACE1 [3] it was 24 nM.
In the case of `CC1(c2cccc(NC(=O)c3ccc(Cl)cc3Cl)c2)COCC(N)=N1` (racemic) [Example 4, (RS)—N-[3-(5-amino-3-methyl-3,6-dihydro-2H-[1,4]oxazin-3-yl)-phenyl]-2,4-dichloro-benzamide], the equilibrium dissociation constant (Kd) on BACE2 [1] came out at 381 nM; on BACE1 [4] it was 1720 nM. Besides, the values for the half-maximal inhibitory concentration (IC50) against BACE2 [2] and on BACE1 [3] were 950 nM and 570 nM, respectively.
Take `CC1(C)OCC(N)=N[C@]1(C)c1cc(NC(=O)c2ccc(OCC(F)(F)F)cn2)ccc1F` [Example 50, 5-(2,2,2-trifluoro-ethoxy)-pyridine-2-carboxylic acid [3-((R)-5-amino-2,2,3-trimethyl-3,6-dihydro-2H-[1,4]oxazin-3-yl)-4-fluoro-phenyl]-amide]: the values for the dissociation constant (Kd) at BACE2 [1] and at BACE1 [4] were 2100 nM and 900 nM, respectively. The IC50 worked out at 1400 nM against BACE2 [2] and 39 nM on BACE1 [3].
In the case of `C[C@@]1(c2cc(NC(=O)c3coc(C(F)(F)F)c3)ccc2F)COCC(N)=N1` [Example 36, 5-trifluoromethyl-furan-3-carboxylic acid [3-((R)-5-amino-3-methyl-3,6-dihydro-2H-[1,4]oxazin-3-yl)-4-fluoro-phenyl]-amide], the equilibrium dissociation constant (Kd) on BACE2 [1] is 955 nM; at BACE1 [4], 2260 nM. For the same compound, the IC50 came out at 120 nM against BACE2 [2] and 550 nM at BACE1 [3].
As to `C[C@@]1(c2cc(NC(=O)c3ncco3)ccc2F)COCC(N)=N1` [Example 80, oxazole-2-carboxylic acid [3-((R)-5-amino-3-methyl-3,6-dihydro-2H-[1,4]oxazin-3-yl)-4-fluoro-phenyl]-amide], the Kd at BACE2 [1] is 45 nM; at BACE1 [4], 2270 nM. Further, the half-inhibitory concentration (IC50) on BACE2 [2] stood at 84 nM; against BACE1 [3] it was 700 nM.
Take `C[C@@]1(c2cc(NC(=O)c3ncoc3-c3ccccc3)ccc2F)COCC(N)=N1` [Example 45, 5-phenyl-oxazole-4-carboxylic acid [3-((R)-5-amino-3-methyl-3,6-dihydro-2H-[1,4]oxazin-3-yl)-4-fluoro-phenyl]-amide]: the Kd at BACE2 [1] was determined as 3020 nM; on BACE1 [4], 3940 nM. Besides, the half-maximal inhibitory concentration (IC50) on BACE2 [2] worked out at 620 nM; against BACE1 [3] it was 760 nM.
On to `C[C@@]1(c2cc(NC(=O)c3ccc(C#N)cn3)ccc2F)COCC(N)=N1` [Example 72, 5-cyano-pyridine-2-carboxylic acid [3-((R)-5-amino-3-methyl-3,6-dihydro-2H-[1,4]oxazin-3-yl)-4-fluoro-phenyl]-amide hydrochloride], for which the values for the Kd on BACE2 [1] and on BACE1 [4] were 25 nM and 16 nM, respectively. The 50% inhibitory concentration (IC50) on BACE2 [2] was found to be 39 nM; against BACE1 [3] it was 3 nM.
Turning to `NC1=NC(c2cc(NC(=O)c3ccc(Cl)cn3)ccc2F)(C2CC2)COC1` (racemic) [Example 22, (RS)-5-Chloro-pyridine-2-carboxylic acid [3-(5-amino-3-cyclopropyl-3,6-dihydro-2H-[1,4]oxazin-3-yl)-4-fluoro-phenyl]-amide], the equilibrium dissociation constant (Kd) came to 19 nM on BACE2 [1] and 140 nM on BACE1 [4]. Also, the IC50 on BACE2 [2] and on BACE1 [3] was 11 nM each time.
For the compound `Cc1cc(Cl)cnc1C(=O)Nc1ccc(F)c([C@]2(C)COCC(N)=N2)c1` [Example 98, 5-chloro-3-methyl-pyridine-2-carboxylic acid [3-((R)-5-amino-3-methyl-3,6-dihydro-2H-[1,4]oxazin-3-yl)-4-fluoro-phenyl]-amide], the dissociation constant Kd at BACE2 [1] was 4 nM; on BACE1 [4] it was 14 nM. For the same compound, the IC50 against BACE2 [2] came out at 1 nM; against BACE1 [3], 7 nM.
With `CC(F)C(=O)Nc1ccc(F)c([C@]2(C)COCC(N)=N2)c1` (mixture of isomers) [Example 87, (RS)—N-[3-((R)-5-amino-3-methyl-3,6-dihydro-2H-[1,4]oxazin-3-yl)-4-fluoro-phenyl]-2-fluoro-propionamide formate], the Kd turned out to be 477 nM on BACE2 [1] and 474 nM at BACE1 [4]. In addition, the figures for the IC50 against BACE2 [2] and at BACE1 [3] were 52 nM and 120 nM, respectively.
For the compound `CC(C)(F)C(=O)Nc1ccc(F)c([C@]2(C)COCC(N)=N2)c1` [Example 92, N-[3-((R)-5-amino-3-methyl-3,6-dihydro-2H-[1,4]oxazin-3-yl)-4-fluoro-phenyl]-2-fluoro-2-methyl-propionamide formate], the Kd on BACE2 [1] is 1070 nM; at BACE1 [4] it was 2220 nM. The values for the IC50 against BACE2 [2] and on BACE1 [3] were 1090 nM and 400 nM, respectively.
For `C[C@@]1(c2cc(NC(=O)C(F)(F)C(F)F)ccc2F)COCC(N)=N1` [Example 83, N-[3-((R)-5-amino-3-methyl-3,6-dihydro-2H-[1,4]oxazin-3-yl)-4-fluoro-phenyl]-2,2,3,3-tetrafluoro-propionamide formate], the Kd came out at 276 nM on BACE2 [1] and 916 nM on BACE1 [4]. Further, the results for the half-inhibitory concentration (IC50) at BACE2 [2] and at BACE1 [3] were 130 nM and 300 nM, respectively.
As to `C[C@@]1(c2cc(NC(=O)c3ncccc3OCC(F)(F)F)ccc2F)COCC(N)=N1` [Example 48, 3-(2,2,2-trifluoro-ethoxy)-pyridine-2-carboxylic acid [3-((R)-5-amino-3-methyl-3,6-dihydro-2H-[1,4]oxazin-3-yl)-4-fluoro-phenyl]-amide], the results for the equilibrium dissociation constant (Kd) on BACE2 [1] and at BACE1 [4] were 115 nM and 1200 nM, respectively. In addition, the half-inhibitory concentration (IC50) was 52 nM against BACE2 [2] and 350 nM on BACE1 [3].

In general, Kd refers to the equilibrium constant for the complex coming apart. Lower therefore signals higher affinity. As usually defined, the IC50 is the midpoint of a concentration-inhibition curve. Lower therefore signals inhibition by little substance.
